In the SangsterLogP compilation:

Assay: method code SF, from DOI: 10.1016/j.ejps.2012.10.019, PMID: 23131797
Conditions: pH 2.0

| logD | SMILES |
| --- | --- |
| 4.22 | O=C(OCc1c(F)cccc1Cl)c1cccc(S(=O)(=O)N2CCCC2)c1 |
| 3.86 | CC(=O)c1sc(SCCOc2ccccc2)nc1C |
| 1.56 | Cc1[nH]c2ccccc2c1C1=CN2CCS(=O)(=O)N=C2S1 |
| 2.05 | CCN(C(=O)C(=O)c1cn(CC(=O)N2CCOCC2)c2ccccc12)c1ccccc1 |

Same assay, conditions: pH 5.0

| logD | SMILES |
| --- | --- |
| 5.14 | CN(Cc1ccccc1)S(=O)(=O)c1ccc(NC(=O)Cc2ccc(F)cc2)cc1 |
| 1.81 | c1ccc2c(c1)OCCOCCOCCO2 |
| 5.98 | CC(C)N(Cc1nc(-c2ccccc2)no1)C(=O)c1ccccc1CCc1ccccc1 |
| 3.72 | c1ccc(-n2nnnc2OCCOc2nnnn2-c2ccccc2)cc1 |
| 2.71 | CC(C)(C)NC(=S)Nc1ccc(F)cc1 |
| 4.24 | COc1ccc(C=O)cc1COc1c(F)c(F)cc(F)c1F |
| 5.09 | COc1cccc2c1N(C(=O)CC(C)C)C(C)(C)c1ssc(=S)c1-2 |
| 4.26 | CN(C1=NS(=O)(=O)c2ccccc21)c1ccc(OC(=O)c2ccccc2)cc1 |
| 4.2 | COc1cc2c(cc1OC)CN(C(=O)c1cccc(S(=O)(=O)N3CCCCC3)c1)CC2 |
| 4.69 | CCc1ccc(-n2nnnc2SCC(=O)Nc2ccc(C(C)=O)cc2)cc1 |
| 5.13 | CC(=O)Oc1cccc(N2C(=O)c3ccc(C(=O)c4ccc5c(c4)C(=O)N(c4cccc(OC(C)=O)c4)C5=O)cc3C2=O)c1 |
| 5.16 | Cc1sc2nc(SCC(=O)N3CCCC3)n(C3CCCCC3)c(=O)c2c1C |
| 4 | O=C(Nc1ccccc1C(F)(F)F)NC1CCCCC1 |
| 4.47 | O=C(COc1ccc2ccccc2c1)N1CCN(S(=O)(=O)c2ccc3c(c2)OCCO3)CC1 |
| 4.16 | COc1cccc(-c2cn3c4c(=O)n(C)c(=O)n(C)c4nc3n2-c2cccc(C)c2)c1 |
| 4.68 | O=C1CC(c2cccc([N+](=O)[O-])c2)CC2=C1C(c1ccco1)N(C(=O)C(F)(F)F)c1ccccc1N2 (configuration not stated) |
| 4.99 | O=C(OCC(=O)N(C1CCCCC1)C1CCCCC1)c1ccc(Cl)nc1 |
| 2.09 | CCc1nc2sc(C#N)c(N)n2c(=O)c1C#N |
| 3.33 | Cc1cc(=O)oc2cc(OC(C)C)ccc12 |
| 4.63 | CC(Sc1nc2ccccc2c(=O)n1-c1ccc(F)cc1)C(=O)NCc1ccc2c(c1)OCO2 (configuration not stated) |
| 5.43 | COc1cccc(OCCn2c(=O)c3cc4c(=O)n(CCOc5cccc(OC)c5)c(=O)c4cc3c2=O)c1 |
| 3.61 | Cn1c2ccccc2n2c3nc(C#N)c(C#N)nc3c(C#N)c12 |
| 3.19 | O=C1c2ccc(-c3ccc4c(c3)C(=O)N(CCO)C4=O)cc2C(=O)N1CCO |
| 3.18 | O=C(COC(=O)c1ccccc1F)Nc1ccccc1 |
| 2.73 | CC12CCCC(C(N)=O)(CCC1)C2 |
| 5.68 | Cc1c(C(=O)Nc2ccc(S(=O)(=O)N3CCCCCC3)cc2)oc2ccc(F)cc12 |

| logD | SMILES |
| --- | --- |
| 5.48 | COc1ccc(S(=O)(=O)N(CC(=O)Nc2cccc([N+](=O)[O-])c2)C2CCCCC2)cc1Cl |
| 3.11 | CSc1sc(C(=O)N2CCOCC2)c2c1S(=O)(=O)N(C)c1ccccc1-2 |
| 4.54 | Cc1ccc(NC(=O)c2ccc(S(=O)(=O)N3CCOCC3)cc2)c(C(=O)c2ccccc2)c1 |
| 2.89 | COc1nc(Cl)nc(Nc2ccccc2)n1 |
| 2.64 | Cc1cc2nsnc2c([N+](=O)[O-])c1C |
| 2.76 | COc1ccc(OCC(=O)N2CCN(C(=O)c3ccco3)CC2)cc1 |
| 5.99 | O=C(Nc1ccc(OC(F)F)cc1)c1ccc(COc2ccc(I)cc2)o1 |
| 5.31 | O=C(COC(=O)c1cccc(S(=O)(=O)N2CCc3ccccc32)c1)Nc1ccc(F)c(F)c1F |
| 3.19 | O=C(CS(=O)(=O)Cc1ccccc1)Nc1ccc2c(c1)OCCO2 |
| 5.38 | O=C(CSCc1ccccc1)Nc1ccc(-c2ccc([N+](=O)[O-])cc2)cc1 |
| 5.59 | COc1ccc(NC(=O)c2cc(NC(=O)c3ccccc3)cc(C(=O)Nc3ccc(OC)cc3)c2)cc1 |
| 3.53 | CCOC(=O)c1cnn(C(=O)c2cnn(-c3ccc([N+](=O)[O-])cc3)c2C(F)(F)F)c1N |
| 5.58 | Cc1ccc(N(CCOC(=O)c2ccc(S(=O)(=O)N3CCCCC3)cc2)C2=NS(=O)(=O)c3ccccc32)cc1 |
| 4.41 | CC1=CC(C(F)(F)F)(C(F)(F)F)C(C#N)=C(N)N1c1ccc(C(N)=O)cc1 |
| 5.35 | CCCCOc1ccc(C(=O)N(CCN2C(=O)c3ccccc3C2=O)c2cccc(OC)c2)cc1 |
| 5.89 | CCCc1ccc(OCc2ccc(C(=O)Nc3ccccc3C(=O)OC)o2)c(OC)c1 |
| 4.41 | Cc1c(OCc2ccccc2)cccc1[N+](=O)[O-] |
| 3.04 | CC1(C)OC(=O)C(=Cc2ccc([N+](=O)[O-])s2)C(=O)O1 |
| 2.46 | CCOc1nc(C#N)nc(N2CCOCC2)n1 |
| 4.82 | Cc1cccc(C)c1NC(=O)CSc1nnnn1-c1ccc(OC(F)(F)F)cc1 |
| 4.64 | COC(=O)c1ccc(OC(=O)c2cc(OC)cc(OC)c2)cc1 |
| 4.34 | CCOC(=O)N1CCN(C(=O)/C=C/c2ccc(Cl)c(Cl)c2)CC1 |
| 1.88 | O=C(c1c(F)cccc1F)N1CCCC1 |
| 3.77 | CCn1cc(-c2nc3c4c(C)c(C)sc4ncn3n2)cn1 |
| 3.64 | COc1ccc(C(=O)Nc2cccc(F)c2)cc1S(=O)(=O)N1CCOCC1 |
| 3.6 | CCC(CC)NC(=O)c1ccc(Cl)c(S(=O)(=O)N2CCCC2)c1 |

Same assay, conditions: pH 6.5

| logD | SMILES |
| --- | --- |
| 5.38 | N#Cc1nc(N2CCCC2)nc(N(c2ccccc2)c2ccccc2)n1 |
| 3.13 | CC(=O)Nc1nc2cc3sc(NC(C)=O)nc3cc2s1 |
| 4.34 | CS(=O)(=O)N(CC(=O)Nc1c(F)cccc1F)c1cc(Cl)c(Cl)cc1Cl |
| 5.77 | CC(C)(C)c1cc(C(F)(F)F)nc(SCCNC(=O)C2CCCCC2)n1 |
| 4.92 | N#CC(=Cc1ccc2c(c1)OCO2)C(=O)NCc1cccc(CNC(=O)C(C#N)=Cc2ccc3c(c2)OCO3)c1 |
| 5.47 | O=C(COc1nnc(SCC(=O)c2ccc3c(c2)OCCO3)n1C1Cc2ccccc2C1)c1ccc(F)cc1 |
| 6.17 | COc1ccccc1N1C(=O)c2ccc(C(=O)Nc3ccc(-c4nnc(-c5ccccc5)o4)cc3)cc2C1=O |
| 5.59 | COc1cc(C(=O)COC(=O)CCCOc2ccc(Cl)cc2Cl)cc(OC)c1OC |
| 4.41 | CN1C(=CC=CC(=O)C(F)(F)F)C(C)(C)c2ccccc21 |
| 2.57 | N#CCOC(=O)c1ccccc1SCC(=O)N1CCCC1 |
| 3.42 | O=C(CC1Nc2ccccc2NC1=O)Nc1ccccc1NC(=O)CC1Nc2ccccc2NC1=O (configuration not stated) |
| 6.09 | COC(=O)c1cccc(NC(=O)c2cc(C(=O)Nc3cccc(C(=O)OC)c3)cc(N3C(=O)c4ccccc4C3=O)c2)c1 |
| 3.68 | COc1cc(C=O)ccc1OS(=O)(=O)c1ccc(F)c(F)c1 |

Same assay, conditions: pH 7.3

| logD | SMILES |
| --- | --- |
| 5.14 | O=C(c1ccccc1)c1ccc(N2CCN(C(=O)c3c(F)cccc3F)CC2)c(F)c1 |
| 4.24 | CCn1c(SCC(=O)Nc2ccc(C(=O)OC)cc2)nnc1-c1ccccc1 |
| 4.35 | CCc1ccccc1Nc1nc(N)nc(CSc2nnc(-c3ccc(OC(F)F)cc3)n2N)n1 |
| 4.74 | CCN1C(=O)c2cccc3c(S(=O)(=O)N(C(=O)c4cccnc4)c4ccc(OC)cc4)ccc1c23 |
| 4.83 | C=CCn1c(SCC(=O)NCc2ccc(C(=O)OCC)cc2)nc2sc(C)c(C)c2c1=O |
| 5.83 | O=C(Nc1cc2c(n(CCNc3ncc(C(F)(F)F)cc3Cl)c1=O)CCCC2=O)c1ccc(Cl)cc1 |
| 5.03 | CCOC(=O)c1c(NC(=O)CSc2nnc(C)s2)sc2c1CCCCC2 |
| 2.93 | Cc1nccn1S(=O)(=O)c1ccc(Cl)cc1 |
| 5.76 | Cc1ccnc(N(C(=O)c2cc3c(s2)CCCC3)C(=O)c2cc3c(s2)CCCC3)c1 |
| 4.66 | COc1ccccc1NC(=O)C1=C(C)Nc2nc(SCc3ccccc3F)nn2C1c1ccncc1 (configuration not stated) |
| 2.3 | O=C(c1cccnc1)N1CCN(S(=O)(=O)c2ccccc2)CC1 |
| 2.19 | COc1cc(OC)c(C2C3=C(CCCC3=O)Nc3ncnn32)cc1OC (configuration not stated) |
| 4.48 | C=CCn1c(SCC(=O)Nc2ccc(C)c(F)c2)nnc1-c1cccs1 |
| 3.85 | CCn1c(SCc2nc3c4cnn(C)c4ncn3n2)nnc1-c1cc(C(F)(F)F)n(C)n1 |

Same assay, conditions: pH 8.0

| logD | SMILES |
| --- | --- |
| 4.15 | Cc1cc(SCC(=O)NCc2ccc3c(c2)OCO3)nc2ccccc12 |
| 3.63 | CSc1ncccc1C(=O)OCC(=O)Nc1c(C)n(C)n(-c2ccccc2)c1=O |

Same assay, conditions: pH 10.0

| logD | SMILES |
| --- | --- |
| 2.17 | Cn1c(N)c(C(=O)COC(=O)C2CC2)c(=O)n(C)c1=O |
| 2.98 | CCOC(=O)CC1=Nn2c(nnc2-c2cccs2)SC1 |
| 1.56 | Nc1nc2nc3nc(N)sc3cc2s1 |
| 4.41 | Cc1cc(C)c(NC(=O)CSc2nnc(-c3ccc(OC(F)F)cc3)n2N)c(C)c1 |
| 3.24 | CC1CN(c2nc3ccccn3c(=O)c2C=C(C#N)C#N)CC(C)O1 (configuration not stated) |
| 3.25 | O=C(c1ccc2c(c1)C(=O)N(c1nccs1)C2=O)c1ccc2c(c1)C(=O)N(c1nccs1)C2=O |
| 4.48 | CN(C)S(=O)(=O)c1cccc(C(=O)NCCc2ccc(Cl)cc2Cl)c1 |
| 3.92 | Cc1ccc2c(C)nc(Nc3nc4c(c(=O)[nH]3)CCCC4)nc2c1 |
| 3.5 | Cc1ccc(C)n1-c1ccc(-c2ccnc3ncnn23)cc1 |
| 4.88 | COc1ccc(NC(=O)c2sc3sc(C(=O)Nc4ccc(OC)c(OC)c4)c(N)c3c2N)cc1OC |
| 4.61 | CCCSc1nc2c(c(=O)n1-c1ccc(Br)cc1)SCC2 |

Same assay, conditions: pH 10.5

| logD | SMILES |
| --- | --- |
| 4.73 | C=C(C)CSc1nnc(-c2cccc(S(=O)(=O)N3CCOCC3)c2)n1C1CCCC1 |
| 3.62 | Cc1nc(N(C)C)c2sc(=S)n(-c3ccccc3)c2n1 |
| 4.13 | Cc1c(C(=O)N2CCN(S(=O)(=O)c3ccccc3)CC2)sc2nc3n(c(=O)c12)CCCCC3 |
| 3.2 | Nc1nc(SCC(=O)N(CCO)CCO)nc2sc3c(c12)CCCC3 |
| 3.53 | C=CCNC(=O)CSc1nnc(CCn2nc(C)c(Br)c2C)n1CC |
| 1.14 | Cc1nc2c(N)nnc(N)c2nc1C |
| 0.82 | Cc1cc(C)n2nc(SCC(=O)NCCNC(=O)CSc3nc4nc(C)cc(C)n4n3)nc2n1 |
| 2.89 | CC(=O)Oc1cc(C(=O)Nc2ccc(Oc3ccccc3)cc2)cc(OC(C)=O)c1OC(C)=O |
| 2.93 | COCCCNC(=O)c1cc(Br)c(C)c(C)c1C |
| 4.89 | COc1ccc(-c2nnc(SCC(=O)c3c(N)n(C)c(=O)n(C)c3=O)n2-c2cccc(C(F)(F)F)c2)cc1 |
| 4.55 | Cc1ccccc1N1C(=O)c2ccc(C(=O)OCC(=O)c3c(N)n(C)c(=O)n(C)c3=O)cc2C1=O |
